≈ marks a conversion by molar mass, not a printed value. Bridge positions count the residues as written; N and C are the ends. Square brackets hold non-standard residues; d marks the D form. Peptide text beside a SMILES is read from it. * marks the point of attachment. Stearoyl = CCCCCCCCCCCCCCCCCC(=O)*; R8 = C=CCCCCCC[C@@](C)(N)C(=O)O; Lauroyl = CCCCCCCCCCCC(=O)*; S5 = C=CCCC[C@](C)(N)C(=O)O; Hexanoyl = CCCCCC(=O)*; Aib = CC(C)(N)C(=O)O
Experiments:
[1] = tested on: Pseudomonas aeruginosa; format: cell-based; conditions: 16 h
Method: (§1) Selected bacterial strains were obtained from Biological Resource Center, NITE (NBRC; Tokyo, Japan). E. coli DH5α was purchased from BioDynamics Laboratory, Inc. (Tokyo, Japan). The antimicrobial activities of the peptides against the gram-positive S. aureus and gram-negative E. coli DH5α, P. aeruginosa, and MDRP were measured using standard broth microdilution method as previously described. Briefly, the bacteria were inoculated and grown overnight at 37 °C on agar media for other organisms i and then collected with liquid media for other organisms ii, according to Japanese Pharmacopoeia, 17th Edition. Each peptide was 2-fold serially diluted with an initial concentration of 500 μM to a final concentration of 1 μM using PBS. Then, 10 μL of the peptide solution was added to each well of a sterile 96-well plate. Subsequently, 90 μL of inoculation with 10^4 colony forming units (CFUs) per mL were added to each well, and the plate was incubated at 35 °C for 16 h.

[2] = tested on: Escherichia coli DH5α; format: cell-based; conditions: 16 h
Method: as §1

[3] = tested on: Staphylococcus aureus; format: cell-based; conditions: 16 h
Method: as §1

[4] = tested on: multiple-drug resistant P. aeruginosa (MDRP); format: cell-based, Pseudomonas aeruginosa; conditions: multiple-drug resistant (MDRP, 16 h)
Method: as §1

[5] = tested on: digestive enzymes; conditions: cited from earlier work
Excerpt: Mag2 comprises cationic and hydrophobic amino acid residues and employs a helical structure […]. These properties are required for interaction with microbial membranes, and subsequent Mag2 insertions into membranes induce bacterial pore formation and ion efflux to exert their antimicrobial activity. The antimicrobial activity of AMPs targets the bacterial ...

[6] = pH 7.4

SMILES	MIC, Gram Negative, P.a. [1] [µM]	MIC, Gram Negative, E.c. (DH5α) [2] [µM]	MIC, Gram Positive, S.a. [3] [µM]	MIC, Gram Negative, MDRP [4] [µM]	Solubility in the aqueous buffer solution [6]	Resistance against digestive enzymes [5]
CC[C@H](C)[C@H](NC(=O)CN)C(=O)N[C@@H](CCCCN)C(=O)N[C@@H](CCCCN)C(=O)N[C@@H](Cc1ccccc1)C(=O)N[C@@H](CC(C)C)C(=O)N[C@@H](CCCCN)C(=O)N[C@@H](CO)C(=O)N[C@]1(C)CCCCCCC=CCCC[C@@](C)(C(=O)N[C@@H](CCCCN)C(N)=O)NC(=O)[C@H](C)NC(=O)[C@H](CCCCN)NC(=O)[C@H](C(C)C)NC(=O)[C@H](Cc2ccccc2)NC(=O)[C@H](CCCCN)NC(=O)[C@H](CCCCN)NC1=O [Peptide 9] (H-GIKKFLKS[R8]KKFVKA[S5]K-NH2; staple 9-16)	6.25 (≈ 12.8 µg/mL)	3.125 (≈ 6.38 µg/mL)	6.25 (≈ 12.8 µg/mL)	3.125 (≈ 6.38 µg/mL)	–	–
CC[C@H](C)[C@H](NC(=O)CN)C(=O)N[C@@H](CCCCN)C(=O)N[C@@H](CCCCN)C(=O)N[C@@H](Cc1ccccc1)C(=O)N[C@@H](CC(C)C)C(=O)N[C@@H](CCCCN)C(=O)N[C@@H](CO)C(=O)NC(C)(C)C(=O)N[C@@H](CCCCN)C(=O)N[C@@H](CCCCN)C(=O)N[C@@H](Cc1ccccc1)C(=O)N[C@H](C(=O)N[C@@H](CCCCN)C(=O)NC(C)(C)C(=O)N[C@@H](Cc1ccccc1)C(=O)N[C@@H](CCCCN)C(N)=O)C(C)C [Peptide 1, reference compound] (H-GIKKFLKS[Aib]KKFVK[Aib]FK-NH2)	3.125 (≈ 6.24 µg/mL)	3.125 (≈ 6.24 µg/mL)	12.5 (≈ 24.9 µg/mL)	3.125 (≈ 6.24 µg/mL)	–	showed resistance against digestive enzymes
CCCCCC(=O)N[C@@]1(C)CCCC=CCCC[C@@](C)(C(=O)N[C@@H](CC(C)C)C(=O)N[C@@H](CCCCN)C(=O)N[C@@H](CO)C(=O)N[C@@H](C)C(=O)N[C@@H](CCCCN)C(=O)N[C@@H](CCCCN)C(=O)N[C@@H](Cc2ccccc2)C(=O)N[C@H](C(=O)N[C@@H](CCCCN)C(=O)N[C@@H](C)C(=O)N[C@@H](Cc2ccccc2)C(=O)N[C@@H](CCCCN)C(N)=O)C(C)C)NC(=O)[C@H](CCCCN)NC(=O)[C@H](CCCCN)NC(=O)[C@H]([C@@H](C)CC)NC1=O [Peptide C6-2] (Hexanoyl-[S5]IKK[S5]LKSAKKFVKAFK-NH2; staple 1-5)	3.125 (≈ 6.6 µg/mL)	1.56 (≈ 3.29 µg/mL)	1.56 (≈ 3.29 µg/mL)	3.125 (≈ 6.6 µg/mL)	–	–
CC[C@H](C)[C@H](NC(=O)CN)C(=O)N[C@@H](CCCCN)C(=O)N[C@@H](CCCCN)C(=O)N[C@@H](Cc1ccccc1)C(=O)N[C@@H](CC(C)C)C(=O)N[C@@H](CCCCN)C(=O)N[C@@H](CO)C(=O)N[C@@]1(C)CCCC=CCCC[C@@](C)(C(=O)N[C@@H](CCCCN)C(=O)N[C@@H](C)C(=O)N[C@@H](Cc2ccccc2)C(=O)N[C@@H](CCCCN)C(N)=O)NC(=O)[C@H](Cc2ccccc2)NC(=O)[C@H](CCCCN)NC(=O)[C@H](CCCCN)NC1=O [Peptide 5] (H-GIKKFLKS[S5]KKF[S5]KAFK-NH2; staple 9-13)	6.25 (≈ 12.8 µg/mL)	1.56 (≈ 3.19 µg/mL)	12.5 (≈ 25.6 µg/mL)	3.125 (≈ 6.4 µg/mL)	–	–
CC[C@H](C)[C@H](NC(=O)CN)C(=O)N[C@@H](CCCCN)C(=O)N[C@@H](CCCCN)C(=O)N[C@@H](Cc1ccccc1)C(=O)N[C@@H](CC(C)C)C(=O)N[C@@H](CCCCN)C(=O)N[C@]1(C)CCCCCCC=CCCC[C@@](C)(C(=O)N[C@@H](Cc2ccccc2)C(=O)N[C@@H](CCCCN)C(N)=O)NC(=O)[C@H](CCCCN)NC(=O)[C@H](C(C)C)NC(=O)[C@H](Cc2ccccc2)NC(=O)[C@H](CCCCN)NC(=O)[C@H](CCCCN)NC(=O)[C@H](C)NC1=O [Peptide 8] (H-GIKKFLK[R8]AKKFVK[S5]FK-NH2; staple 8-15)	>50	6.25 (≈ 13.1 µg/mL)	>50	3.125 (≈ 6.57 µg/mL)	–	–

Second part, led by results:

MIC, Gram Negative, P.a. [1] [µM]	MIC, Gram Negative, E.c. (DH5α) [2] [µM]	MIC, Gram Positive, S.a. [3] [µM]	MIC, Gram Negative, MDRP [4] [µM]	Solubility in the aqueous buffer solution [6]	SMILES	Resistance against digestive enzymes [5]
3.125 (≈ 6.25 µg/mL)	1.56 (≈ 3.12 µg/mL)	3.125 (≈ 6.25 µg/mL)	0.78 (≈ 1.56 µg/mL)	–	CC[C@H](C)[C@H](NC(=O)CN)C(=O)N[C@@H](CCCCN)C(=O)N[C@@H](CCCCN)C(=O)N[C@@]1(C)CCCC=CCCC[C@@](C)(C(=O)N[C@@H](CCCCN)C(=O)N[C@@H](CCCCN)C(=O)N[C@@H](Cc2ccccc2)C(=O)N[C@H](C(=O)N[C@@H](CCCCN)C(=O)N[C@@H](C)C(=O)N[C@@H](Cc2ccccc2)C(=O)N[C@@H](CCCCN)C(N)=O)C(C)C)NC(=O)[C@H](CO)NC(=O)[C@H](CCCCN)NC(=O)[C@H](CC(C)C)NC1=O [Peptide 3] (H-GIKK[S5]LKS[S5]KKFVKAFK-NH2; staple 5-9)	–
12.5 (≈ 27.4 µg/mL)	6.25 (≈ 13.7 µg/mL)	6.25 (≈ 13.7 µg/mL)	25 (≈ 54.9 µg/mL)	–	CCCCCCCCCCCC(=O)N[C@@]1(C)CCCC=CCCC[C@@](C)(C(=O)N[C@@H](CC(C)C)C(=O)N[C@@H](CCCCN)C(=O)N[C@@H](CO)C(=O)N[C@@H](C)C(=O)N[C@@H](CCCCN)C(=O)N[C@@H](CCCCN)C(=O)N[C@@H](Cc2ccccc2)C(=O)N[C@H](C(=O)N[C@@H](CCCCN)C(=O)N[C@@H](C)C(=O)N[C@@H](Cc2ccccc2)C(=O)N[C@@H](CCCCN)C(N)=O)C(C)C)NC(=O)[C@H](CCCCN)NC(=O)[C@H](CCCCN)NC(=O)[C@H]([C@@H](C)CC)NC1=O [Peptide C12-2] (Lauroyl-[S5]IKK[S5]LKSAKKFVKAFK-NH2; staple 1-5)	–
1.56 (≈ 3.09 µg/mL)	1.56 (≈ 3.09 µg/mL)	6.25 (≈ 12.4 µg/mL)	0.78 (≈ 1.55 µg/mL)	–	CC[C@H](C)[C@H](NC(=O)CN)C(=O)N[C@@H](CCCCN)C(=O)N[C@@H](CCCCN)C(=O)N[C@@H](Cc1ccccc1)C(=O)N[C@@H](CC(C)C)C(=O)N[C@@H](CCCCN)C(=O)N[C@@]1(C)CCCC=CCCC[C@@](C)(C(=O)N[C@H](C(=O)N[C@@H](CCCCN)C(=O)N[C@@H](C)C(=O)N[C@@H](Cc2ccccc2)C(=O)N[C@@H](CCCCN)C(N)=O)C(C)C)NC(=O)[C@H](CCCCN)NC(=O)[C@H](CCCCN)NC(=O)[C@H](C)NC1=O [Peptide 4] (H-GIKKFLK[S5]AKK[S5]VKAFK-NH2; staple 8-12)	–
3.125 (≈ 6.14 µg/mL)	3.125 (≈ 6.14 µg/mL)	25 (≈ 49.1 µg/mL)	1.56 (≈ 3.07 µg/mL)	–	CC[C@H](C)[C@H](NC(=O)CN)C(=O)N[C@@H](CCCCN)C(=O)N[C@@H](CCCCN)C(=O)N[C@]1(C)CCCCCCC=CCCC[C@@](C)(C(=O)N[C@H](C(=O)N[C@@H](CCCCN)C(=O)N[C@@H](C)C(=O)N[C@@H](Cc2ccccc2)C(=O)N[C@@H](CCCCN)C(N)=O)C(C)C)NC(=O)[C@H](CCCCN)NC(=O)[C@H](CCCCN)NC(=O)[C@H](C)NC(=O)[C@H](CO)NC(=O)[C@H](CCCCN)NC(=O)[C@H](CC(C)C)NC1=O [Peptide 7] (H-GIKK[R8]LKSAKK[S5]VKAFK-NH2; staple 5-12)	–
1.56 (≈ 3 µg/mL)	1.56 (≈ 3 µg/mL)	3.125 (≈ 6.01 µg/mL)	0.78 (≈ 1.5 µg/mL)	–	CC[C@H](C)[C@H](NC(=O)CN)C(=O)N[C@@H](CCCCN)C(=O)N[C@@H](CCCCN)C(=O)N[C@@H](Cc1ccccc1)C(=O)N[C@@H](CC(C)C)C(=O)N[C@@H](CCCCN)C(=O)N[C@@H](CO)C(=O)N[C@@H](C)C(=O)N[C@@H](CCCCN)C(=O)N[C@@H](CCCCN)C(=O)N[C@@]1(C)CCCC=CCCC[C@@](C)(C(=O)N[C@@H](CCCCN)C(N)=O)NC(=O)[C@H](C)NC(=O)[C@H](CCCCN)NC(=O)[C@H](C(C)C)NC1=O [Peptide 6] (H-GIKKFLKSAKK[S5]VKA[S5]K-NH2; staple 12-16)	–
>50	>50	>50	>50	poor solubility	CCCCCCCCCCCCCCCCCC(=O)N[C@@]1(C)CCCC=CCCC[C@@](C)(C(=O)N[C@@H](CC(C)C)C(=O)N[C@@H](CCCCN)C(=O)N[C@@H](CO)C(=O)N[C@@H](C)C(=O)N[C@@H](CCCCN)C(=O)N[C@@H](CCCCN)C(=O)N[C@@H](Cc2ccccc2)C(=O)N[C@H](C(=O)N[C@@H](CCCCN)C(=O)N[C@@H](C)C(=O)N[C@@H](Cc2ccccc2)C(=O)N[C@@H](CCCCN)C(N)=O)C(C)C)NC(=O)[C@H](CCCCN)NC(=O)[C@H](CCCCN)NC(=O)[C@H]([C@@H](C)CC)NC1=O [Peptide C18-2] (Stearoyl-[S5]IKK[S5]LKSAKKFVKAFK-NH2; staple 1-5)	–
1.56 (≈ 3.14 µg/mL)	1.56 (≈ 3.14 µg/mL)	3.125 (≈ 6.29 µg/mL)	1.56 (≈ 3.14 µg/mL)	–	CC[C@H](C)[C@@H]1NC(=O)[C@@](C)(N)CCCC=CCCC[C@@](C)(C(=O)N[C@@H](CC(C)C)C(=O)N[C@@H](CCCCN)C(=O)N[C@@H](CO)C(=O)N[C@@H](C)C(=O)N[C@@H](CCCCN)C(=O)N[C@@H](CCCCN)C(=O)N[C@@H](Cc2ccccc2)C(=O)N[C@H](C(=O)N[C@@H](CCCCN)C(=O)N[C@@H](C)C(=O)N[C@@H](Cc2ccccc2)C(=O)N[C@@H](CCCCN)C(N)=O)C(C)C)NC(=O)[C@H](CCCCN)NC(=O)[C@H](CCCCN)NC1=O [Peptide 2] (H-[S5]IKK[S5]LKSAKKFVKAFK-NH2; staple 1-5)	–
